Experimental data as given in patent US5837852A, “Capped nucleic acid oligomers that inhibit cap-dependent transcription of the influenza virus endonuclease” (priority 1993, dated 1998).
Entries after “also recorded” stand apart in the source; their conditions may differ. {m7Gppp} = cap: 7-methylguanosine joined 5'-5' by triphosphate; m = 2'-O-methyl; r = 2'-OH (RNA); {P} = phosphate

Key:
[1] = system: influenza virus endonuclease (viral polymerase in viral cores); assay: Viral endonuclease cleavage reaction of capped RNA substrates with viral cores; assay type: biochemical, Influenza A/PR/8 virus (H1N1); settings: for endonucleolytic cleavage by viral cores (in words): absence of nucleotide triphosphates; for dephosphorylation of the 3' phosphate by the viral polymerase (in words): 3'-phosphate terminated fragments with viral cores
[2] = system: viral polymerase (viral cores); assay: Elongation (priming of transcription) of capped RNA fragments by viral cores with NTPs; assay type: biochemical, Influenza A/PR/8 virus (H1N1); settings: with NTPs (ATP, CTP, GTP)
viral cores = settings: glycerol gradients, reference 3; cited from earlier work

Substance | endonucleolytic cleavage by viral cores (in words) [1] | elongation / priming of transcription by viral cores (in words) [2] | further results
m^7 GpppGmAAUACUCAAGGp | cleavage to an 11-base primer resulted |  | 
m^7 GpppGmAAUACUCAA (GAAUACUCAA; sugars from the 5' end m1 r9, 5' {m7Gppp}, backbone not given here) [ID; NO] |  | directly primed elongation | 
m^7 GpppGmUUUUUAp |  |  | co-sedimentation with viral cores (viral cores): co-sedimented efficiently
m^7 GpppGmAAUACUCAAGp (GAAUACUCAAG; sugars from the 5' end m1 r10, 5' {m7Gppp}, 3' {P}, backbone not given here) [ID; NO] | A minor amount of G11-P fragment was cleaved to the A9-OH fragment | little elongation | dephosphorylation of the 3' phosphate by the viral polymerase (in words) [1]: essentially no cleavage of the 3' phosphate; also recorded: little if any dephosphorylation; dephosphorylation of the 3' phosphate by the viral polymerase (in words) ([1]; listed as G11-p): not converted to the G11-OH fragment; elongation / priming of transcription by viral cores (in words) ([2]; listed as G11-p): unable to efficiently prime transcription
m^7 GpppGmAAUACUCAAGCUp (GAAUACUCAAGCU; sugars from the 5' end m1 r12, 5' {m7Gppp}, 3' {P}, backbone not given here) [ID; NO] | cleaved in the absence of ribonucleotides to an 11 base primer | normal elongation is observed | 
m^7 GpppGmAAUACUCAAG-OH (GAAUACUCAAG; sugars from the 5' end m1 r10, 5' {m7Gppp}, backbone not given here) [ID; NO; 5, capped 11-nucleotide cleavage product] | did not result in further cleavage |  | elongation / priming of transcription by viral cores (in words) ([2]; listed as G11-OH): could function as a primer for viral transcription; also recorded: able to prime with an efficiency similar to that obtained with the full-length substrate
m^7 GpppGmAAUACUCAAGCp (GAAUACUCAAGC; sugars from the 5' end m1 r11, 5' {m7Gppp}, 3' {P}, backbone not given here) [ID; NO] | little cleavage of the C12-P fragment to the G11-OH fragment occurred | A small amount of elongation was observed | dephosphorylation of the 3' phosphate by the viral polymerase (in words) [1]: little if any dephosphorylation
m^7 GpppGmAAUACUCAAp (GAAUACUCAA; sugars from the 5' end m1 r9, 5' {m7Gppp}, 3' {P}, backbone not given here) [ID; NO] |  | little elongation | dephosphorylation of the 3' phosphate by the viral polymerase (in words) [1]: essentially no cleavage of the 3' phosphate; also recorded: little if any dephosphorylation
m^7 GpppGmAAUACUC | neither cleaved | nor were they able to prime transcription | 
m^7 GpppGmUp |  |  | co-sedimentation with viral cores (viral cores): did not
m^7 GpppGm |  |  | co-sedimentation with viral cores (viral cores): did not
m^7 GpppGmAAUACU | neither cleaved | nor were they able to prime transcription | 
m^7 GpppGmAAUACUCA |  |  | elongation / priming of transcription by viral cores (in words) ([2]; listed as A9-OH): inefficiently elongated; also recorded: appeared to promote an abortive elongation product or primed transcription very inefficiently
m^7 GpppGmAAUACUCAAGC (GAAUACUCAAGC; sugars from the 5' end m1 r11, 5' {m7Gppp}, backbone not given here) [ID; NO] | a minor amount of secondary cleavage to a putative A9-OH fragment occurred | appeared to prime transcription without cleavage | 
